This experiment has as its target T1, human TLR8 (Homo sapiens, UniProt Q9NR97).
T1 construct: host or cells: HEK293 (HEK-Blue hTLR8)
T1 sequence (Q9NR97 27-1041): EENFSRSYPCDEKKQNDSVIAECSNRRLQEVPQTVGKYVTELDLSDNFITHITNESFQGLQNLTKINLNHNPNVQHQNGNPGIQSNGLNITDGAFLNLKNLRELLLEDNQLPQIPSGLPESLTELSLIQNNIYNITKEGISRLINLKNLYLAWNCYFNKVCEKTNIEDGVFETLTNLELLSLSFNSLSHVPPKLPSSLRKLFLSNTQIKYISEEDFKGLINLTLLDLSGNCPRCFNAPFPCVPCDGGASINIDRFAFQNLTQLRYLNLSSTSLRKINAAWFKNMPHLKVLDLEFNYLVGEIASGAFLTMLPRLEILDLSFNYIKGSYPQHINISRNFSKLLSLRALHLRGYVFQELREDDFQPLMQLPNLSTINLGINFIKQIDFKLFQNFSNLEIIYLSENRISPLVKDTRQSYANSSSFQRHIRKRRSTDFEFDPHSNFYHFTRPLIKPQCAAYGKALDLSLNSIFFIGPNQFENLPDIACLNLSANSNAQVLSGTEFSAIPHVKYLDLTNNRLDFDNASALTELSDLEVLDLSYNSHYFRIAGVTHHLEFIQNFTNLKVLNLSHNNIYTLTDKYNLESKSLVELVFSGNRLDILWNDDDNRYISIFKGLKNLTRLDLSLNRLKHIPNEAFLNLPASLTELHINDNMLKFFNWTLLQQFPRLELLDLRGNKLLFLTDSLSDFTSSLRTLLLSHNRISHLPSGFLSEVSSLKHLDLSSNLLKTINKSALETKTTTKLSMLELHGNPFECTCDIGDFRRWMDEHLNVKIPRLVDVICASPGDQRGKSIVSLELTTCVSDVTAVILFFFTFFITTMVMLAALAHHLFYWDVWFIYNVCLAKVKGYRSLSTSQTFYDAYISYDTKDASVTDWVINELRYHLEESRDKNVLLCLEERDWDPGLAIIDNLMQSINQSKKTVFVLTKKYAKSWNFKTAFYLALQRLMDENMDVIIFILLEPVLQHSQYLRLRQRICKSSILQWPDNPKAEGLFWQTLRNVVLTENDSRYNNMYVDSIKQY
The experiment can be described thus: HEK293-Blue-hTLR-8 cells assay. Format: cell-based. Conditions: HEK293-Blue-hTLR8 cells, R848 stimulation, 20 hrs, SEAP reporter; read-out: HEK/hTLR8 IC50. The text has this:
A stable HEK293-Blue-hTLR-8 cell line was purchased from InvivoGen (Cat.#: hkb-htlr8, San Diego, California, USA). These cells were originally designed for studying the stimulation of human TLR8 by monitoring the activation of NF-κB. A SEAP (secreted embryonic alkaline phosphatase) reporter gene was placed under the control of the IFN-β minimal promoter fused to five NF-κB and AP-1-binding sites. The SEAP was induced by activating NF-κB and AP-1 via stimulating HEK-Blue hTLR8 cells with TLR8 ligands. Therefore the reporter expression was declined by TLR8 antagonist under the stimulation of a ligand, such as R848, for incubation of 20 hrs. The cell culture supernatant SEAP reporter activity was determined using QUANTI-Blue™ kit (Cat.#: rep-qb1, Invivogen, San Diego, Ca, USA) at a wavelength of 640 nm, a detection medium that turns purple or blue in the presence of alkaline phosphatase.
HEK293-Blue-hTLR8 cells were incubated at a density of 250,000~450,000 cells/mL in a volume of 170 µL in a 96-well plate in Dulbecco’s Modified Eagle’s medium (DMEM) containing 4.5 g/L glucose, 50 U/mL penicillin, […], […], 2 mM L-glutamine, 10% (v/v) heat-inactivated fetal bovine serum with addition of 20 µL test compound in a serial dilution in the presence of final DMSO at 1% and 10 µL of 60uM R848 in above DMEM, perform incubation under 37° C. in a CO2 incubator for 20 hrs. Then 20 µL of the supernatant from each well was incubated with 180 µL Quanti-blue substrate solution at 37° C. for 2 hrs and the absorbance was read at 620 \~655 nm using a spectrophotometer. The signaling pathway that TLR8 activation leads to downstream NF-κB activation has been widely accepted, and therefore similar reporter assay was modified for evaluating TLR8 antagonist.
For the molecule `CCc1nc(N2CCN(Cc3cnc(N4CC(C)(N)C4)nc3)CC2)ccc1-c1cc(C)c(=O)n(C)c1` [Example 3, 5-[6-[4-[[2-(3-amino-3-methyl-azetidin-1-yl)pyrimidin-5-yl]methyl]piperazin-1-yl]-2-ethyl-3-pyridyl]-1,3-dimethyl-pyridin-2-one], the IC50 was found to be 0.3 nM.
For the molecule `CCc1nc(N2CCN3CCN(c4cnc(N5CC6(CNCCO6)C5)nc4)CC3C2)ccc1-c1cc(C)c(=O)n(C)c1` (stereo not shown) [Example 19, 5-[2-ethyl-6-[2-[2-(5-oxa-2,8-diazaspiro[3.5]nonan-2-yl)pyrimidin-5-yl]-3,4,6,7,9,9a-hexahydro-1H-pyrazino[1,2-a]pyrazin-8-yl]-3-pyridyl]-1,3-dimethyl-pyridin-2-one], the IC50 stood at 5.9 nM.
Take `CCc1nc(N2CCN(Cc3cnc(N4CCOC[C@@H](N)C4)nc3)CC2)ccc1-c1cc(C)c(=O)n(C)c1` [Example 4, 5-[6-[4-[[2-[(6S)-6-amino-1,4-oxazepan-4-yl]pyrimidin-5-yl]methyl]piperazin-1-yl]-2-ethyl-3-pyridyl]-1,3-dimethyl-pyridin-2-one]: the IC50 was found to be 0.6 nM.
In the case of `Cc1cc(-c2ccc(N3CCN(Cc4ccc(N5CCNCC5)cc4)CC3)nc2C(F)F)cn(C)c1=O` [Example 17, 5-[2-(difluoromethyl)-6-[4-[(4-piperazin-1-ylphenyl)methyl]piperazin-1-yl]-3-pyridyl]-1,3-dimethyl-pyridin-2-one], the IC50 is 0.3 nM.
As for `Cc1cc(-c2ccc(N3CCN(Cc4ccc(N5CCNCC5)nc4)CC3)nc2C(C)C)cn(C)c1=O` [Example 11, 5-[2-isopropyl-6-[4-[(6-piperazin-1-yl-3-pyridyl)methyl]piperazin-1-yl]-3-pyridyl]-1,3-dimethyl-pyridin-2-one], the IC50 was determined as 0.3 nM.
As for `CCc1nc(N2CCN(Cc3ccc(N4CC5(CNCCO5)C4)nc3)CC2)ccc1-c1cc(C)c(=O)n(C)c1` [Example 2, 5-[2-ethyl-6-[4-[[6-(5-oxa-2,8-diazaspiro[3.5]nonan-2-yl)-3 pyridyl]methyl]piperazin-1-yl]-3-pyridyl]-1,3-dimethyl-pyridin-2-one], the IC50 amounted to 0.3 nM.
Take `Cc1cc(-c2ccc(N3CCN(Cc4ncc(N5CCNCC5)cn4)CC3)nc2C(C)C)cn(C)c1=O` [Example 12, 5-[2-isopropyl-6-[4-[(5-piperazin-1-ylpyrimidin-2-yl)methyl]piperazin-1-yl]-3-pyridyl]-1,3-dimethyl-pyridin-2-one]: the IC50 was found to be 0.7 nM.
For the molecule `Cc1cc(-c2ccc(N3CCN(Cc4cnc(N5CC6(CNCCO6)C5)nc4)CC3)nc2C(C)C)cn(C)c1=O` [Example 6, 5-[2-isopropyl-6-[4-[[2-(5-oxa-2,8-diazaspiro[3.5]nonan-2-yl)pyrimidin-5-yl]methyl]piperazin-1-yl]-3-pyridyl]-1,3-dimethyl-pyridin-2-one], the IC50 amounted to 0.3 nM.
The result for `Cc1cc(-c2ccc(N3CCC(N4CCNCC4)CC3)nc2C(C)C)cn(C)c1=O` [Example 18, 5-[2-isopropyl-6-(4-piperazin-1-yl-1-piperidyl)-3-pyridyl]-1,3-dimethyl-pyridin-2-one] reads 0.8 nM; that for `Cc1cc(-c2ccc(N3CCN4CCN(c5ccc(N6CCNCC6)nc5)CC4C3)nc2C(C)C)cn(C)c1=O` (stereo not shown) [Example 16, 5-[2-isopropyl-6-[8-(6-piperazin-1-yl-3-pyridyl)-3,4,6,7,9,9a-hexahydro-1H-pyrazino[1,2-a]pyrazin-2-yl]-3-pyridyl]-1,3-dimethyl-pyridin-2-one], 2 nM; that for `Cc1cc(-c2ccc(N3CCN(Cc4ccc(N5CCNCC5)cc4)CC3)nc2C(C)C)cn(C)c1=O` [Example 13, 5-[2-isopropyl-6-[4-[(4-piperazin-1-ylphenyl)methyl]piperazin-1-yl]-3-pyridyl]-1,3-dimethyl-pyridin-2-one], 0.3 nM.
With `Cc1cc(-c2ccc(N3CCN(Cc4cccc(N5CCNCC5)c4)CC3)nc2C(C)C)cn(C)c1=O` [Example 14, 5-[2-isopropyl-6-[4-[(3-piperazin-1-ylphenyl)methyl]piperazin-1-yl]-3-pyridyl]-1,3-dimethyl-pyridin-2-one], the IC50 was determined as 0.3 nM.
For the molecule `Cc1cc(-c2ccc(N3CCN(Cc4ccc(N5CCNCC5)cn4)CC3)nc2C(C)C)cn(C)c1=O` [Example 7, 5-[2-isopropyl-6-[4-[(5-piperazin-1-yl-2-pyridyl)methyl]piperazin-1-yl]-3-pyridyl]-1,3-dimethyl-pyridin-2-one], the IC50 turned out to be 0.3 nM.
The result for `Cc1cc(-c2ccc(N3CCN(c4ccc5c(n4)CCNC5)CC3)nc2C(C)C)cn(C)c1=O` [Example 15, 5-[2-isopropyl-6-[4-(5,6,7,8-tetrahydro-1,6-naphthyridin-2-yl)piperazin-1-yl]-3-pyridyl]-1,3-dimethyl-pyridin-2-one] reads 2 nM.
Take `CCc1nc(N2CCN(Cc3ccc(N4CCNCC4)cc3)CC2)ccc1-c1cc(C)c(=O)n(C)c1` [Example 5, 5-[2-ethyl-6-[4-[(4-piperazin-1-ylphenyl)methyl]piperazin-1-yl]-3-pyridyl]-1,3-dimethyl-pyridin-2-one]: the IC50 is 0.3 nM.
Turning to `Cc1cc(-c2ccc(N3CCN(Cc4cnc(N5CC(C)(N)C5)nc4)CC3)nc2C(C)C)cn(C)c1=O` [Example 10, 5-[6-[4-[[2-(3-amino-3-methyl-azetidin-1-yl)pyrimidin-5-yl]methyl]piperazin-1-yl]-2-isopropyl-3-pyridyl]-1,3-dimethyl-pyridin-2-one], the IC50 came out at 0.3 nM.
For `CCc1nc(N2CCN(Cc3cnc(N4CC5(CNCCO5)C4)nc3)CC2)ccc1-c1cc(C)c(=O)n(C)c1` [Example 1, 5-[2-ethyl-6-[4-[[2-(5-oxa-2,8-diazaspiro[3.5]nonan-2-yl)pyrimidin-5-yl]methyl]piperazin-1-yl]-3-pyridyl]-1,3-dimethyl-pyridin-2-one], the IC50 worked out at 0.7 nM.
Regarding `Cc1cc(-c2ccc(N3CCN(Cc4cnc(N5CCNCC5)cn4)CC3)nc2C(C)C)cn(C)c1=O` [Example 8, 5-[2-isopropyl-6-[4-[(5-piperazin-1-ylpyrazin-2-yl)methyl]piperazin-1-yl]-3-pyridyl]-1,3-dimethyl-pyridin-2-one], the IC50 was determined as 0.3 nM.
Consider `Cc1cc(-c2ccc(N3CCN(Cc4cnc(N5CCNCC5)nc4)CC3)nc2C(C)C)cn(C)c1=O` [Example 9, 5-[2-isopropyl-6-[4-[(2-piperazin-1-ylpyrimidin-5-yl)methyl]piperazin-1-yl]-3-pyridyl]-1,3-dimethyl-pyridin-2-one], for which the IC50 came out at 0.3 nM.

The values above are taken from patent US20230295109A1, “PYRIDINONE COMPOUNDS FOR THE TREATMENT OF AUTOIMMUNE DISEASE” (F. Hoffmann-La Roche AG, priority 2020, published 2023).
